Measurements: ChEMBL document CHEMBL4118101 (Bioorg Med Chem, 2018)
≈ marks a conversion by molar mass, not a printed value. Calls of active or inactive are those of the source. No cut-off for these calls is given here.

What was measured:
Candida albicans [1] = assay: Antifungal activity against Candida albicans ATCC 10231 measured after 48 hrs by CLSI M27-A3 protocol based method; assay type: functional; conditions: ATCC 10231, 48 h
HEK293 = assay: Cytotoxicity against HEK293 cells up to 31 ug/ml after 24 hrs by resazurin based assay; assay type: cell-based; conditions: human, hek293, 24 h
Candida albicans [2] = assay: Antifungal activity against fluconazole/ITC-resistant Candida albicans ATCC 90819 measured after 48 hrs by CLSI M27-A3 protocol based method; assay type: functional; conditions: Candida albicans, ATCC 90819, 48 h; read-out: MIC
[3] = Hemolytic activity in mouse RBC at 3.9 ug/ml after 1 hr relative to control; assay type: ADME, cell-based, Erythrocyte; conditions: mouse red blood cells (erythrocytes), read-out: Activity
Nakaseomyces glabratus [4] = assay: Antifungal activity against Candida glabrata isolate CG2 measured after 48 hrs by CLSI M27-A3 protocol based method; assay type: functional; conditions: Nakaseomyces glabratus, isolate CG2, 48 h; read-out: MIC
Aspergillus nidulans = assay: Antifungal activity against Aspergillus nidulans ATCC 38163 measured after 48 hrs by CLSI M38-A2 protocol based method; assay type: functional; conditions: ATCC 38163, 48 h
[5] = Hemolytic activity in mouse RBC at 7.8 ug/ml after 1 hr relative to control; assay type: ADME, cell-based, Erythrocyte; conditions: mouse red blood cells (erythrocytes), read-out: Activity
[6] = Hemolytic activity in mouse RBC at 31.3 ug/ml after 1 hr relative to control; assay type: ADME, cell-based, Erythrocyte; conditions: mouse red blood cells (erythrocytes), at 31.3 µg/mL, read-out: Activity
Nakaseomyces glabratus [7] = assay: Antifungal activity against Candida glabrata ATCC 2001 measured after 48 hrs by CLSI M27-A3 protocol based method; assay type: functional, CBS 138; conditions: Nakaseomyces glabratus, CBS 138, 48 h; read-out: MIC
Candida albicans [8] = assay: Antifungal activity against Candida albicans ATCC 64124 measured after 48 hrs by CLSI M27-A3 protocol based method; assay type: functional; conditions: Candida albicans, ATCC 64124, 48 h; read-out: MIC
[9] = Hemolytic activity in mouse RBC at 0.48 ug/ml after 1 hr relative to control; assay type: ADME, cell-based, Erythrocyte; conditions: mouse red blood cells (erythrocytes), read-out: Activity
Candida albicans [10] = assay: Antifungal activity against fluconazole/ITC-susceptible Candida albicans ATCC MYA-2310 measured after 48 hrs by CLSI M27-A3 protocol based method; assay type: functional; conditions: Candida albicans, ATCC MYA-2310, 48 h; read-out: MIC
Candida parapsilosis [11] = assay: Antifungal activity against Candida parapsilosis ATCC 22019 measured after 48 hrs by CLSI M27-A3 protocol based method; assay type: functional; conditions: Lodderomyces parapsilosis, ATCC 22019, 48 h
Aspergillus flavus = assay: Antifungal activity against Aspergillus flavus ATCC MYA-3631 measured after 48 hrs by CLSI M38-A2 protocol based method; assay type: functional; conditions: ATCC MYA-3631, 48 h
Nakaseomyces glabratus [12] = assay: Antifungal activity against Candida glabrata isolate CG3 measured after 48 hrs by CLSI M27-A3 protocol based method; assay type: functional; conditions: Nakaseomyces glabratus, 48 h; read-out: MIC
Candida parapsilosis [13] = assay: Antifungal activity against Candida parapsilosis isolate CP2 measured after 48 hrs by CLSI M27-A3 protocol based method; assay type: functional; conditions: Lodderomyces parapsilosis, isolate CP2, 48 h
BEAS-2B = assay: Cytotoxicity against human BEAS2B cells at 31 ug/ml after 24 hrs by resazurin based assay; assay type: cell-based
Candida albicans [14] = assay: Fungistatic activity against Candida albicans ATCC 10231 at 4 times MIC incubated for 24 hrs by time kill assay; assay type: functional, organism-based
A549 = assay: Cytotoxicity against human A549 cells at 15.5 ug/ml after 24 hrs by resazurin based assay; assay type: cell-based; conditions: a549, 24 h
Aspergillus terreus = assay: Antifungal activity against Aspergillus terreus ATCC MYA-3633 measured after 48 hrs by CLSI M38-A2 protocol based method; assay type: functional; conditions: ATCC MYA-3633, 48 h
Candida albicans [15] = assay: Antifungal activity against fluconazole/ITC-resistant Candida albicans ATCC MYA-1003 measured after 48 hrs by CLSI M27-A3 protocol based method; assay type: functional; conditions: Candida albicans, ATCC MYA-1003, 48 h; read-out: MIC
Candida parapsilosis [16] = assay: Antifungal activity against Candida parapsilosis isolate CP1 measured after 48 hrs by CLSI M27-A3 protocol based method; assay type: functional; conditions: Lodderomyces parapsilosis, isolate CP1, 48 h
Cryptococcus neoformans [17] = assay: Antifungal activity against Cryptococcus neoformans isolate CN2 measured after 48 hrs by CLSI M27-A3 protocol based method; assay type: functional; conditions: Cryptococcus neoformans, isolate CN2, 48 h; read-out: MIC
[18] = Hemolytic activity in mouse RBC at 1.95 ug/ml after 1 hr relative to control; assay type: ADME, cell-based, Erythrocyte; conditions: mouse red blood cells (erythrocytes), at 1.95 µg/mL, read-out: Activity
Nakaseomyces glabratus [19] = assay: Antifungal activity against Candida glabrata isolate CG1 measured after 48 hrs by CLSI M27-A3 protocol based method; assay type: functional; conditions: Nakaseomyces glabratus, 48 h; read-out: MIC
Cryptococcus neoformans [20] = assay: Antifungal activity against Cryptococcus neoformans isolate CN3 measured after 48 hrs by CLSI M27-A3 protocol based method; assay type: functional; conditions: Cryptococcus neoformans, isolate CN3, 48 h; read-out: MIC
Candida albicans [21] = assay: Antifungal activity against fluconazole/ITC-resistant Candida albicans ATCC MYA-1237 measured after 48 hrs by CLSI M27-A3 protocol based method; assay type: functional; conditions: Candida albicans, ATCC MYA-1237, 48 h; read-out: MIC
Candida albicans [22] = assay: Induction of membrane permeabilization in Candida albicans ATCC 10231 assessed as membrane disruption at 4 times MIC after 1 hr by propidium iodide staining based fluorescence microscopy; assay type: functional, organism-based
Cryptococcus neoformans [23] = assay: Antifungal activity against Cryptococcus neoformans isolate CN1 measured after 48 hrs by CLSI M27-A3 protocol based method; assay type: functional; conditions: isolate CN1, 48 h
Candida parapsilosis [24] = assay: Antifungal activity against Candida parapsilosis isolate CP3 measured after 48 hrs by CLSI M27-A3 protocol based method; assay type: functional; conditions: Lodderomyces parapsilosis, isolate CP3, 48 h
Pichia kudriavzevii = assay: Antifungal activity against Candida krusei ATCC 6258 measured after 48 hrs by CLSI M27-A3 protocol based method; assay type: functional; conditions: Pichia kudriavzevii, ATCC 6258, 48 h
[25] = Hemolytic activity in mouse RBC at […] ug/ml after 1 hr relative to control; assay type: ADME, cell-based, Erythrocyte; conditions: mouse red blood cells (erythrocytes), read-out: Activity
[26] = Hemolytic activity in mouse RBC at 62.5 ug/ml after 1 hr relative to control; assay type: ADME, cell-based, Erythrocyte; conditions: mouse red blood cells (erythrocytes), read-out: Activity
Candida albicans [27] = assay: Antifungal activity against fluconazole/ITC-susceptible Candida albicans ATCC MYA-2876 measured after 48 hrs by CLSI M27-A3 protocol based method; assay type: functional; conditions: Candida albicans, ATCC MYA-2876, 48 h
Candida parapsilosis [28] = assay: Fungistatic activity against Candida parapsilosis ATCC 22019 up to 4 times MIC incubated for 24 hrs by time kill assay; assay type: functional, organism-based

SMILES: CCCCCCCCNCC(O)(Cn1cncn1)c1ccc(F)cc1F (stereo unspecified)
- MIC (Candida albicans [1]): 2.7 µM (≈ 0.989 µg/mL)
- Activity (HEK293): Non-Toxic
- MIC (Candida albicans [2]): 21.3 µM (≈ 7.81 µg/mL)
- hemolysis at 1 h, 3.9 ug/ml [3]: 2%
- MIC (Nakaseomyces glabratus [4]): 2.7 µM (≈ 0.989 µg/mL)
- MIC (Aspergillus nidulans): 5.3 µM (≈ 1.94 µg/mL)
- hemolysis at 1 h, 7.8 ug/ml [5]: 0%
- hemolysis at 1 h, 31.3 ug/ml [6]: 9%
- MIC (Nakaseomyces glabratus [7]): 2.7 to 21.3 µM (≈ 0.989 to 7.81 µg/mL)
- MIC (Candida albicans [8]): > 85.4 µM
- hemolysis at 1 h, 0.48 ug/ml [9]: 2%
- MIC (Candida albicans [10]): 85.4 µM (≈ 31.3 µg/mL)
- MIC (Candida parapsilosis [11]): 0.16 µM (≈ 0.0586 µg/mL)
- MIC (Aspergillus flavus): > 85.4 µM
- MIC (Nakaseomyces glabratus [12]): 42.6 µM (≈ 15.6 µg/mL)
- MIC (Candida parapsilosis [13]): 0.33 µM (≈ 0.121 µg/mL)
- Activity (BEAS-2B): Non-Toxic
- Activity (Candida albicans [14]): Active
- Activity (A549): Non-Toxic
- MIC (Aspergillus terreus): 42.6 µM (≈ 15.6 µg/mL)
- MIC (Candida albicans [15]): 85.4 µM (≈ 31.3 µg/mL)
- MIC (Candida parapsilosis [16]): 1.3 µM (≈ 0.476 µg/mL)
- MIC (Cryptococcus neoformans [17]): 10.6 µM (≈ 3.88 µg/mL)
- hemolysis at 1 h, 1.95 ug/ml [18]: 0%
- MIC (Nakaseomyces glabratus [19]): 21.3 µM (≈ 7.81 µg/mL)
- MIC (Cryptococcus neoformans [20]): 10.6 µM (≈ 3.88 µg/mL)
- MIC (Candida albicans [21]): 42.6 µM (≈ 15.6 µg/mL)
- Activity (Candida albicans [22]): inactive
- MIC (Cryptococcus neoformans [23]): 5.3 µM (≈ 1.94 µg/mL)
- MIC (Candida parapsilosis [24]): 0.65 µM (≈ 0.238 µg/mL)
- MIC (Pichia kudriavzevii): 2.7 µM (≈ 0.989 µg/mL)
- hemolysis at 1 h, 0.975 ug/ml [25]: 2%
- hemolysis at 1 h, 15.6 ug/ml [25]: 3%
- hemolysis at 1 h, 62.5 ug/ml [26]: 78%
- MIC (Candida albicans [27]): 85.4 µM (≈ 31.3 µg/mL)
- Activity (Candida parapsilosis [28]): Active
